Laboratory results published in US20200024278A1, “COMPOSITION COMPRISING ANTIBIOTIC COMPOUND AND AN HETEROCYCLIC COMPOUND AND THEIR USE IN PREVENTING OR TREATING BACTERIAL INFECTIONS” (MUTABILIS, priority 2016, published 2020).
Read-outs that look alike come from different tables or passages of the source.

What was measured:
PAE 27853 = format: cell-based, P. aeruginosa; details: tntbc: Too numerous to be counted
Procedure: (§1) Method 4: Determination of the Spontaneous Mutation Frequency of the Compounds Alone and Combined with Antibiotics.
(§2) Bacterial isolates (Table 3) were grown overnight at 35° C. on TSA plates (Becton-Dickinson and Company) in ambient air. After 24 h of incubation, isolated bacterial colonies were added to cation-adjusted Mueller-Hinton broth (ca-MHB; Becton-Dickinson and Company) and cultured for approximately 6 h at 35° C. The pre-culture was stopped once bacteria have reached an OD600 nm of 0.5 for 200 μL. The bacterial suspension was centrifuged at 4000 rpm for 20 min. The supernatant was then discarded and the bacterial pellet was dissolved in ca-MHB to obtain 10^9 to 10^10 CFU/mL. Assays including Fosfomycin were supplemented with 25 μg/ml of Glucose-6-phosphate. 100 μL of the adjusted bacterial suspension were spread on agar plates containing different concentrations of the compounds of the present invention alone or combined with an antibacterial (Table 1). The plates were incubated for 24-48 h at 35° C. in ambient air. CFU were numerated on each agar plate containing compound. The number of resistant colonies obtained was divided by the starting inoculum to give the frequency of spontaneous resistance for a given incubation time (24 and 48 h).

PAE UFR48 = format: cell-based, P. aeruginosa; details: tntbc: Too numerous to be counted
Procedure: as §1, §2

PAE UFR90 = format: cell-based, P. aeruginosa; details: tntbc: Too numerous to be counted
Procedure: as §1, §2

KPN UFR68 = experiment: MIC, broth microdilution (CLSI), substance alone or ATB combined with compound at 4 or 8 μg/mL; format: cell-based, K. pneumoniae; details: Klebsiella pneumoniae, substance alone
In short: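 Per CLSI-M7-A7, MICs are determined in cation-adjusted Mueller-Hinton broth with a final inoculum of 5·10^5 CFU/mL. Plates incubate 16-20 h at 35° C in air and are read by eye. Fosfomycin assays carry 25 μg/ml glucose-6-phosphate.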

Structure (SMILES)	Frequency of spontaneous resistance (PAE 27853; single agent at 4.MIC)	Frequency of spontaneous resistance (PAE 27853; single agent at 8.MIC)	Frequency of spontaneous resistance (PAE UFR48; single agent at 4.MIC)	Frequency of spontaneous resistance (PAE UFR48; single agent at 8.MIC)	Frequency of spontaneous resistance (PAE UFR90; single agent at 4.MIC)	Frequency of spontaneous resistance (PAE UFR90; single agent at 8.MIC)	MIC (KPN UFR68) [µg/mL]
NCC[C@H](O)C(=O)N[C@@H]1C[C@H](N)[C@@H](O[C@H]2O[C@H](CN)[C@@H](O)[C@H](O)[C@H]2O)[C@H](O)[C@H]1O[C@H]1O[C@H](CO)[C@@H](O)[C@H](N)[C@H]1O [AN, Amikacin, reference compound]	6.6E−07	1.7E−07					
NC[C@H]1C=C(c2cnco2)[C@@H]2CN1C(=O)N2OS(=O)(=O)[O-].O=C(O)C(F)(F)F.[Na+] (relative stereo) [Example 1, sodium and 2,2,2-trifluoroacetate [trans-2-(azaniumylmethyl)-4-oxazol-5-yl-7-oxo-1,6-diazabicyclo[3.2.1]oct-3-en-6-yl] sulfate]	tntbc	tntbc	tntbc	tntbc	tntbc	tntbc	
CO/N=C(\C(=O)N[C@@H]1C(=O)N2C(C(=O)[O-])=C(C[N+]3(C)CCCC3)CS[C@H]12)c1csc(N)n1 [FEP, Cefepime]							> 256
